Laboratory results taken from ChEMBL document CHEMBL1201862, “PubChem BioAssay data set” (2004).
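Briefly, cells in 96-well plates were exposed to five compound concentrations for 48 h, and endpoints were estimated by linear interpolation. Abbreviation: GI50, concentration required for 50% inhibition of growth.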 Calls of active or inactive are those of the source. Rule as the data show it: active = GI50 up to about 1.1 µM and inactive = higher.

Tests used:
Assay in all cases: DTP human tumour cell line panel, 48 h
A498 = system: A498
CAKI-1 = system: CAKI-1
COLO 205 = system: COLO 205
DU-145 = system: DU-145
HOP-62 = system: HOP-62
IGROV-1 = system: IGROV-1
KM12 = system: KM12
MCF7 = system: MCF7
NCI-H226 = system: NCI-H226
NCI-H460 = system: NCI-H460
NCI-H522 = system: NCI-H522
NCI/ADR-RES = system: NCI/ADR-RES
OVCAR-5 = system: OVCAR-5
PC-3 = system: PC-3
SK-MEL-5 = system: SK-MEL-5
SNB-19 = system: SNB-19
ACHN = system: ACHN
EKVX = system: EKVX
SF-268 = system: SF-268
A549 = system: A549

Structure (SMILES) | GI50 (A498) | GI50 (CAKI-1) | GI50 (COLO 205) | GI50 (DU-145) | GI50 (HOP-62) | GI50 (IGROV-1) | GI50 (KM12) | GI50 (MCF7) | GI50 (NCI-H226) | GI50 (NCI-H460) | GI50 (NCI-H522) | GI50 (NCI/ADR-RES) | GI50 (OVCAR-5) | GI50 (PC-3) | GI50 (SK-MEL-5) | GI50 (SNB-19) | GI50 (ACHN) | GI50 (EKVX) | GI50 (SF-268) | GI50 (A549)
O=C1CCCC/C1=C1/SC(=N/c2ccccc2)/C(=N\c2ccccc2)N1c1ccccc1 | > 100 µM (inactive) | > 100 µM (inactive) | > 100 µM (inactive) | 56.8 µM (inactive) | 36.1 µM (inactive) | > 100 µM (inactive) | > 100 µM (inactive) | 68.7 µM (inactive) | 23.4 µM (inactive) | > 100 µM (inactive) | > 100 µM (inactive) | > 100 µM (inactive) | > 100 µM (inactive) | > 10 µM (inactive) | > 10 µM (inactive) | > 100 µM (inactive) | – | – | – | –
N/C(S)=N/N=C/c1cc(CN2CCOCC2)c(N)cn1 | 37 µM (inactive) | 45.7 µM (inactive) | 26.8 µM (inactive) | 28.6 µM (inactive) | 30.3 µM (inactive) | 50.5 µM (inactive) | 23.6 µM (inactive) | 31.4 µM (inactive) | 12.7 µM (inactive) | 38.4 µM (inactive) | – | 31 µM (inactive) | 60.3 µM (inactive) | 56.9 µM (inactive) | 35.2 µM (inactive) | 47.1 µM (inactive) | 14.1 µM (inactive) | 63.1 µM (inactive) | 23.6 µM (inactive) | –
C=CCOC1OC(CS(=O)(=O)O)C(O)C(O)C1O (configuration not stated) | > 100 µM (inactive) | > 100 µM (inactive) | > 100 µM (inactive) | > 100 µM (inactive) | > 100 µM (inactive) | > 100 µM (inactive) | > 100 µM (inactive) | > 100 µM (inactive) | > 100 µM (inactive) | > 100 µM (inactive) | – | > 100 µM (inactive) | > 100 µM (inactive) | > 100 µM (inactive) | > 100 µM (inactive) | > 100 µM (inactive) | – | – | – | –
O=C(NNC(=S)Nc1ccccc1)c1nsc2ccccc12 | – | – | 39.7 µM (inactive) | – | 36.7 µM (inactive) | 31 µM (inactive) | 30.4 µM (inactive) | – | – | 21.5 µM (inactive) | – | – | 57 µM (inactive) | – | 24.6 µM (inactive) | 34.9 µM (inactive) | 39.7 µM (inactive) | 25.2 µM (inactive) | 30.1 µM (inactive) | 28.8 µM (inactive)
CCN(CC)/[N+]([O-])=N/O | > 100 µM (inactive) | > 100 µM (inactive) | – | – | > 100 µM (inactive) | > 100 µM (inactive) | > 100 µM (inactive) | – | > 100 µM (inactive) | > 100 µM (inactive) | > 100 µM (inactive) | – | > 100 µM (inactive) | – | > 100 µM (inactive) | > 100 µM (inactive) | > 100 µM (inactive) | > 100 µM (inactive) | > 100 µM (inactive) | > 100 µM (inactive)
CC(=O)c1ccccc1NP(=O)(c1ccccc1)c1ccccc1 | 31.4 µM (inactive) | 30.8 µM (inactive) | 13.2 µM (inactive) | > 100 µM (inactive) | > 100 µM (inactive) | 46.5 µM (inactive) | 50.7 µM (inactive) | 64.6 µM (inactive) | – | 43.6 µM (inactive) | 37.3 µM (inactive) | 14.1 µM (inactive) | > 100 µM (inactive) | > 100 µM (inactive) | 47.3 µM (inactive) | > 100 µM (inactive) | > 100 µM (inactive) | 45.4 µM (inactive) | 74.5 µM (inactive) | 56.9 µM (inactive)
CS(C)(=O)=Nn1c(=O)n2n(c1=O)C1c3ccccc3C2c2ccccc21 | > 100 µM (inactive) | > 100 µM (inactive) | > 100 µM (inactive) | > 100 µM (inactive) | > 100 µM (inactive) | > 100 µM (inactive) | – | > 100 µM (inactive) | – | > 100 µM (inactive) | > 100 µM (inactive) | > 100 µM (inactive) | > 100 µM (inactive) | > 100 µM (inactive) | 43.7 µM (inactive) | > 100 µM (inactive) | > 100 µM (inactive) | > 100 µM (inactive) | – | > 100 µM (inactive)
O=C(CCCn1cnc([N+](=O)[O-])n1)NCCn1ccnc1[N+](=O)[O-] | – | > 100 µM (inactive) | > 100 µM (inactive) | > 100 µM (inactive) | > 100 µM (inactive) | > 100 µM (inactive) | > 100 µM (inactive) | > 100 µM (inactive) | > 100 µM (inactive) | > 100 µM (inactive) | > 100 µM (inactive) | – | > 100 µM (inactive) | > 100 µM (inactive) | > 100 µM (inactive) | – | > 100 µM (inactive) | > 100 µM (inactive) | > 100 µM (inactive) | > 100 µM (inactive)
CSC1SCC2C(=O)N(C)C(C(C)C)C(=O)OCC(NC(=O)c3cnc4ccccc4n3)C(=O)NC(C)C(=O)N(C)C1C(=O)N(C)C(C(C)C)C(=O)OCC(NC(=O)c1cnc3ccccc3n1)C(=O)NC(C)C(=O)N2C (configuration not stated) | 0.0075 µM (active) | 0.0075 µM (active) | 0.0075 µM (active) | 0.0031 µM (active) | 0.0075 µM (active) | 0.0075 µM (active) | 0.0075 µM (active) | 0.0075 µM (active) | 0.0075 µM (active) | 0.0075 µM (active) | – | 0.0454 µM (active) | 0.0075 µM (active) | 0.000993 µM (active) | 0.0075 µM (active) | 0.0075 µM (active) | – | 0.0075 µM (active) | 0.0075 µM (active) | 0.0075 µM (active)
COC(=O)CN(C)P(=O)(N1CC1)N1CC1 | – | > 100 µM (inactive) | > 100 µM (inactive) | – | – | > 100 µM (inactive) | > 100 µM (inactive) | – | – | – | > 100 µM (inactive) | – | > 100 µM (inactive) | – | > 100 µM (inactive) | > 100 µM (inactive) | 71.4 µM (inactive) | > 100 µM (inactive) | 89.7 µM (inactive) | > 100 µM (inactive)
O=C(Nc1ccc([N+](=O)[O-])cc1)C(=O)C(C(=O)c1ccccc1F)C1OC(=O)c2ccccc21 (configuration not stated) | 80.9 µM (inactive) | 59.4 µM (inactive) | 25.9 µM (inactive) | – | 58.1 µM (inactive) | 64.9 µM (inactive) | 42.4 µM (inactive) | – | 16.6 µM (inactive) | 34.9 µM (inactive) | 14.7 µM (inactive) | – | 58.3 µM (inactive) | – | 48.5 µM (inactive) | 26.4 µM (inactive) | 58.5 µM (inactive) | 40.4 µM (inactive) | 35 µM (inactive) | 67.6 µM (inactive)
Cc1ccc(S(=O)(=O)NCCSS(=O)(=O)c2ccc(C)cc2)cc1 | 11.3 µM (inactive) | – | 56 µM (inactive) | 42.6 µM (inactive) | – | – | 28.1 µM (inactive) | 22.3 µM (inactive) | 24.3 µM (inactive) | 35.4 µM (inactive) | 18.2 µM (inactive) | 25.8 µM (inactive) | – | 27.6 µM (inactive) | 20.7 µM (inactive) | 72.9 µM (inactive) | 32.8 µM (inactive) | – | 22.1 µM (inactive) | 25.9 µM (inactive)
COc1ccc(/N=C\c2ccc(N(CCC#N)S(=O)(=O)c3ccccc3)cc2C)cc1 | – | 35.5 µM (inactive) | 27.2 µM (inactive) | – | 25.1 µM (inactive) | 64.1 µM (inactive) | – | – | > 100 µM (inactive) | 34.8 µM (inactive) | > 100 µM (inactive) | – | > 100 µM (inactive) | – | 51.1 µM (inactive) | > 100 µM (inactive) | 15.6 µM (inactive) | > 100 µM (inactive) | 3.58 µM (inactive) | 26.5 µM (inactive)
CN(C)C(=O)Oc1c(Br)cc(Br)cc1C(=O)OCc1ccccc1 | 23 µM (inactive) | 23.3 µM (inactive) | 18.3 µM (inactive) | – | 28.2 µM (inactive) | 28.6 µM (inactive) | 28.7 µM (inactive) | 26.4 µM (inactive) | 28.7 µM (inactive) | 21.8 µM (inactive) | 34.8 µM (inactive) | 18.5 µM (inactive) | 28.3 µM (inactive) | – | 13.1 µM (inactive) | 45.5 µM (inactive) | – | 35.6 µM (inactive) | 35.6 µM (inactive) | 28.1 µM (inactive)
O=c1c(-c2ccccc2)c(SCCN2CCOCC2)n(-c2ccccc2)c(=S)n1-c1ccccc1 | > 100 µM (inactive) | 52 µM (inactive) | > 100 µM (inactive) | > 100 µM (inactive) | 74 µM (inactive) | > 100 µM (inactive) | > 100 µM (inactive) | 80.9 µM (inactive) | 35.3 µM (inactive) | > 100 µM (inactive) | 51.5 µM (inactive) | > 100 µM (inactive) | > 100 µM (inactive) | > 100 µM (inactive) | > 100 µM (inactive) | – | > 100 µM (inactive) | > 100 µM (inactive) | – | –
C[N+](C)(C)CCOC(=O)/C=C/c1c[nH]cn1 | > 500 µM (inactive) | > 500 µM (inactive) | > 500 µM (inactive) | – | > 500 µM (inactive) | > 500 µM (inactive) | > 500 µM (inactive) | > 500 µM (inactive) | > 500 µM (inactive) | > 500 µM (inactive) | > 500 µM (inactive) | > 500 µM (inactive) | > 356 µM (inactive) | – | > 500 µM (inactive) | > 500 µM (inactive) | – | > 500 µM (inactive) | > 500 µM (inactive) | > 500 µM (inactive)
CCNC(=S)NNC(=O)c1nsc2ccccc12 | – | – | > 100 µM (inactive) | – | 73.6 µM (inactive) | > 100 µM (inactive) | 67.1 µM (inactive) | – | – | 50.1 µM (inactive) | – | – | > 100 µM (inactive) | – | 64.6 µM (inactive) | > 100 µM (inactive) | > 100 µM (inactive) | 18.7 µM (inactive) | 81.5 µM (inactive) | > 100 µM (inactive)
